# Columns and labels:
# human p38α (MAPK14) = target: T1, human p38α (MAPK14) (Homo sapiens, UniProt Q16539); test: AlphaScreen kinase activity assay, human p38α; type: biochemical
# T1 construct: GST; purchased Invitrogen
# Description: The inhibitory activity of CHF6297 was determined using an AlphaScreen® (PerkinElmer)-based kinase activity assay as previously described ([Armani et al., 2022]). Kinase reactions consisted of 25 mM 4-(2-hydroxyethyl)-1-piperazine ethanesulfonic acid (HEPES), pH 7.5; 10 mM MgCl2; 100 μM Na3VO4; 2 mM DTT; 0.05 mg/mL Tween^TM 20; 100 pM solution of p38α, p38β, p38δ, or p38γ (Invitrogen); 1% DMSO; and 0.3 μg/mL ATF-2 fusion protein (New England Biolabs). Compounds were incubated under these conditions for 2 h, at 25°C, prior to the initiation of kinase activity by the addition of 250 μM ATP. […] Detection was performed by measuring luminescence following the addition of AlphaScreen donor beads (PerkinElmer, 6765300) and Protein A AlphaScreen acceptor beads (PerkinElmer, 6760137), both at a final concentration of 20 μg/mL. IC50 values were determined from concentration–response curves. […]
# CHF6297 was tested in biochemical enzymatic assays to determine its potency as an inhibitor of human p38α (MAPK14) and of the other human p38 isoforms, p38β (MAPK11), p38γ ([…]), and p38δ ([…]) ([Armani et al., 2022]). Activity in the primary screening assay was determined using AlphaScreen technology, in which a peptide (ATF2) is phosphorylated by the appropriate GST-tagged p38 protein isoform in the presence of CHF6297 at concentrations from semi-logarithmic dilutions. […]
# [1] = test system: IAV-induced airway neutrophilia in HDM-challenged mice; test: Influenza virus A (H3N2)-induced exacerbation in HDM-sensitized mice; type: in vivo, Balb/c mice
# T1 sequence (Q16539 whole entry): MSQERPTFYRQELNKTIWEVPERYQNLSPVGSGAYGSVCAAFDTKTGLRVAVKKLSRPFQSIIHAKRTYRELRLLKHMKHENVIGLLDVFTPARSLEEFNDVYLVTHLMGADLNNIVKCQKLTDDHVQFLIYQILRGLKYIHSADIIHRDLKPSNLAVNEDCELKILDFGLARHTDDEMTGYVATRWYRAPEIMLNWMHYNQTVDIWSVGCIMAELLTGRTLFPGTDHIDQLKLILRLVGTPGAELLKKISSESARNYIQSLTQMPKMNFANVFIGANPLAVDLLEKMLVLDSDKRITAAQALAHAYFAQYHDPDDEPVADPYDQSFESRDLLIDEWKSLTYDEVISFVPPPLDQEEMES
smiles,measurement,setting,value
C[C@H]1CCCCN1c1nnc2ccc(O[C@@H]3CC[C@H](NC(=O)Nc4cc(C(C)(C)C)nn4-c4cnn(CCN(C)C)c4)c4ccccc43)cn12 [CHF6297],IC50 fold-difference vs. human p38α,human p38α (MAPK14),1
same,IC50,"human p38α (MAPK14); n = 3, read-out: IC50 (mean ± s.d.)",140 ± 60 pM
same,neutrophils in BAL fluid,[1]; 30 μg/kg i.n. twice daily for 3 days,2.78 ± 0.28 × 10^5 cells/mL
same,neutrophils in BAL fluid,[1]; 100 μg/kg twice daily for 3 days,1.29 ± 0.119 × 10^5 cells/mL
